Results reported in US20080311126A1, “Antisense Oligonucleotides Directed to Ribonucleotide Reducatase R2 and Uses Thereof in Combination Therapies for the Treatment of Cancer” (Genesense Technologies, Inc, priority 2004, published 2008).

How the values were obtained:
[1] = system: Human taxol-resistant promyelocytic leukaemia cells (HL-60); assay: HL-60 taxol-resistant promyelocytic leukaemia xenograft in SCID mice; format: in vivo
Description: Human taxol-resistant promyelocytic leukaemia cells (HL-60) (7×10^6 cells in 100 μl of PBS) were injected into the right flank of 6-7 weeks old female SCID mice. After the size of tumour reached an approximate volume of 100 mm^3, 10 days post tumour cell injection, SEQ ID NO:1 was administered by bolus infusion into the tail vein every other day at 10 mg/kg. Control animals received saline alone for the same period. The anti-tumour effect of SEQ ID NO:1 was further compared to that of taxol. Taxol was administered i.p. once a week at a dose of 10 mg/kg. Anti-tumour activity was estimated by the inhibition of tumour volume, which was measured with caliper. Each point represents mean tumour volume calculated from 10 animals per experimental group. In addition animals were sacrificed and tumour weights taken at the end of the study.

Human Liver Carcinoma = assay: Tumour growth assay, human liver carcinoma in CD-1 nude mice; format: in vivo
Hela S3 cells = assay: Relative colony forming efficiency, lipofectin +/- oligonucleotide 4 hours; format: cell-based, human; conditions: Hela S3 cervix carcinoma cells; averages of 2-8 determinations
Procedure, shortened: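 Survival is given as percent of lipofectin-treated controls, scored as methylene blue-stained colonies after 7–10 days of regrowth. Beforehand, HeLa S3 cultures received a 4 h lipofectin-mediated pulse of oligonucleotide, normally at 0.2 μM.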

[2] = system: Human Glioblastoma-Astrocytoma; assay: Tumour growth assay, human glioblastoma-astrocytoma in mice; format: in vivo
[3] = system: PC-3 human prostatic cancer cells; assay: PC-3 prostatic tumour xenograft in SCID mice; format: in vivo; conditions: FIG. 14A; SEQ ID NO:1 10 mg/kg 18 times; mitoxantrone 2 mg/kg once
Description: In both experiments, PC-3 human prostatic cancer cells (1×10^7 cells in 100 μl of PBS) were subcutaneously injected into the right flank of 6-7 weeks old male SCID mice. After the size of tumour reached an approximate volume of 50 mm^3, 14 days post tumour cell injection, SEQ ID NO:1 was administered by bolus infusion into the tail vein every other day at 10 mg/kg 18 times (FIG. 14A) or 17 times (FIG. 14B), respectively. Control animals received saline alone for the same period. Antitumour effect of SEQ ID NO:1 was further compared to that of mitoxantrone (Novantrone®) alone or in combination. Mitoxantrone was administered intravenously once at the beginning of the treatments at a dose of 2 mg/kg (FIG. 14A) or once a week for four weeks at a reduced dose of 0.8 mg/kg (FIG. 14B). All treatments were stopped at day 50 (FIG. 14A) or 48 (FIG. 14B), respectively. A day after the last treatment, tumours were excised from the animals and their weights were measured.

[4] = Phase I single agent study of SEQ ID NO:1 in patients with solid tumours or melanoma; format: in vivo, human
Erythroleukemia = assay: Survival assay, erythroleukemia in mice; format: in vivo, murine
Description: (§1) For the study of the effect of the compositions on leukaemias, the animals are grafted with a particular number of cells, and the anti-tumour activity is determined by the increase in the survival time of the treated mice relative to the controls.

Human Renal Carcinoma = assay: Tumour growth assay, human renal carcinoma in mice; format: in vivo
Burkitt's Lymphoma = assay: Survival assay, Burkitt's lymphoma in mice; format: in vivo, human
Description: as §1

[5] = system: Human Colon Adenocarcinoma; assay: Tumour growth assay, human colon adenocarcinoma in CD-1 nude mice; format: in vivo
[6] = system: Human Ovary Adenocarcinoma; assay: Tumour growth assay, human ovary adenocarcinoma in Balb/c Nu-Nu mice; format: in vivo

GGCTAAATCGCTCCACCAAG (chemistry not given here) [SEQ ID NO: 1, antisense oligonucleotide that hybridizes to the coding region of human ribonucleotide reductase R2 mRNA]
Tumour weight as % of saline control ([1]; HL-60 (leukemia), Taxol resistance, SCID): 38%
anti-tumour effect (tumour volume, tumour weight) ([1]; SEQ ID NO:1 10 mg/kg every other day, Taxol 10 mg/kg i.p. weekly): significant reduction of tumour weight
Inhibition of tumour weight (Human Liver Carcinoma): approximately 65%
Reduced relative colony forming efficiency, Hela S3 (% inhibition of colony forming ability) (Hela S3 cells): 67.92%
Inhibition of tumour weight [2]: approximately 65%
antitumour effect (tumour weight) [3]: significant delay of tumour growth
dose with no evidence of toxicity ([4]; human subjects): 148.0 mg/m^2/day
maximum tolerated dose (MTD) ([4]; patients with solid tumours or melanoma): 222.0 mg/m^2/day
effect of treatment on survival (Erythroleukemia; Erythroleukemia): Treatment prolonged survival
survival of treated mice (Erythroleukemia; untreated died within 36 days, one treated mouse died at day 22): Treated mice survived beyond day 71
Inhibition of tumour size (Human Renal Carcinoma; Human Renal Carcinoma (first entry)): Approximately 90% inhibition of
Inhibition of tumour size (Human Renal Carcinoma; Human Renal Carcinoma^2 (second entry)): Approximately 97% inhibition of
effect of treatment on survival (Burkitt's Lymphoma; first entry): Treatment prolonged survival
survival of treated mice (Burkitt's Lymphoma; first entry, untreated died by day 23, one treated mouse died at day 69): Treated mice survived beyond day 73
effect of treatment on survival (Burkitt's Lymphoma; second entry): Treatment prolonged survival
survival of all treated mice (end of the experimental period) (Burkitt's Lymphoma; second entry, untreated died by day 20): the experimental period (140 days)
Inhibition of tumour size ([5]; CD-1 nude mice, Day 18 after tumour implantation): mice by approximately 80% on Day 18
dose dependence of decrease in tumour weight ([5]; CD-1 nude mice, doses of 1.0 to 6.0 mg/kg): Dose-dependent decrease in tumour
Inhibition of tumour weight ([5]; Human Colon Adenocarcinoma): approximately 80%
Inhibition of tumour size ([6]; Balb/c Nu-Nu mice, Days 19 to 25 after tumour implantation): approximately 35% in Balb/c Nu-Nu
Inhibition of tumour weight ([6]; Human Ovary Adenocarcinoma): of approximately 50%
